Source: the NIST ThermoML archive (doi:10.1021/je060283w)

Experiment: relative permittivity at zero frequency (dimensionless)
Details: Parallel plate capacitor

COC [dimethyl ether]
Details	relative permittivity at zero frequency
303.7 K, 180 kPa, Gas	1.016
303.7 K, 320 kPa, Gas	1.025
303.7 K, 440 kPa, Gas	1.032
303.7 K, 460 kPa, Gas	1.034
303.7 K, 500 kPa, Gas	1.037
303.7 K, 530 kPa, Gas	1.039
303.7 K, 660 kPa, Gas	1.084
303.7 K, 6300 kPa, Liquid	5.34
303.7 K, 8000 kPa, Liquid	5.37
303.7 K, 10200 kPa, Liquid	5.41
303.7 K, 12200 kPa, Liquid	5.44
303.7 K, 14200 kPa, Liquid	5.47
303.7 K, 16300 kPa, Liquid	5.5
303.7 K, 17600 kPa, Liquid	5.52
303.7 K, 20200 kPa, Liquid	5.56
303.7 K, 22400 kPa, Liquid	5.59
303.7 K, 24200 kPa, Liquid	5.62
303.7 K, 25900 kPa, Liquid	5.64
303.7 K, 27500 kPa, Liquid	5.66
313.3 K, 80 kPa, Gas	1.011
313.3 K, 150 kPa, Gas	1.015
313.3 K, 460 kPa, Gas	1.034
313.3 K, 510 kPa, Gas	1.037
313.3 K, 560 kPa, Gas	1.041
313.3 K, 770 kPa, Gas	1.057
313.3 K, 870 kPa, Gas	1.142
313.3 K, 2300 kPa, Liquid	5
313.3 K, 4400 kPa, Liquid	5.05
313.3 K, 6300 kPa, Liquid	5.1
313.3 K, 8300 kPa, Liquid	5.14
313.3 K, 10200 kPa, Liquid	5.16
313.3 K, 12200 kPa, Liquid	5.2
313.3 K, 14300 kPa, Liquid	5.24
313.3 K, 16300 kPa, Liquid	5.27
313.3 K, 18000 kPa, Liquid	5.3
313.3 K, 20400 kPa, Liquid	5.33
313.3 K, 22000 kPa, Liquid	5.35
313.3 K, 24300 kPa, Liquid	5.39
313.3 K, 26100 kPa, Liquid	5.41
313.3 K, 28200 kPa, Liquid	5.44
313.3 K, 29600 kPa, Liquid	5.46
323 K, 50 kPa, Gas	1.01
323 K, 100 kPa, Gas	1.012
323 K, 240 kPa, Gas	1.02
323 K, 450 kPa, Gas	1.033
323 K, 530 kPa, Gas	1.038
323 K, 700 kPa, Gas	1.049
323 K, 1080 kPa, Gas	1.118
323 K, 1300 kPa, Liquid	4.72
323 K, 2200 kPa, Liquid	4.74
323 K, 4200 kPa, Liquid	4.8
323 K, 6200 kPa, Liquid	4.85
323 K, 8200 kPa, Liquid	4.89
323 K, 10400 kPa, Liquid	4.93
323 K, 12400 kPa, Liquid	4.97
323 K, 14200 kPa, Liquid	5.01
323 K, 16400 kPa, Liquid	5.04
323 K, 18300 kPa, Liquid	5.07
323 K, 19800 kPa, Liquid	5.1
323 K, 22000 kPa, Liquid	5.13
323 K, 24000 kPa, Liquid	5.17
323 K, 26300 kPa, Liquid	5.2
323 K, 27900 kPa, Liquid	5.23
323 K, 29400 kPa, Liquid	5.25
323 K, 31200 kPa, Liquid	5.27
333.4 K, 430 kPa, Gas	1.03
333.4 K, 460 kPa, Gas	1.031
333.4 K, 540 kPa, Gas	1.036
333.4 K, 710 kPa, Gas	1.047
333.4 K, 850 kPa, Gas	1.057
333.4 K, 1050 kPa, Gas	1.071
333.4 K, 1380 kPa, Gas	1.122
333.4 K, 2200 kPa, Liquid	4.46
333.4 K, 4300 kPa, Liquid	4.52
333.4 K, 6400 kPa, Liquid	4.58
333.4 K, 8300 kPa, Liquid	4.62
333.4 K, 10200 kPa, Liquid	4.67
333.4 K, 12200 kPa, Liquid	4.71
333.4 K, 14000 kPa, Liquid	4.74
333.4 K, 15800 kPa, Liquid	4.78
333.4 K, 17200 kPa, Liquid	4.81
333.4 K, 22000 kPa, Liquid	4.89
333.4 K, 23800 kPa, Liquid	4.92
333.4 K, 25800 kPa, Liquid	4.95
333.4 K, 27600 kPa, Liquid	4.97
333.4 K, 29400 kPa, Liquid	4.99
343.2 K, 60 kPa, Gas	1.01
343.2 K, 120 kPa, Gas	1.013
343.2 K, 220 kPa, Gas	1.018
343.2 K, 390 kPa, Gas	1.027
343.2 K, 430 kPa, Gas	1.029
343.2 K, 490 kPa, Gas	1.032
343.2 K, 550 kPa, Gas	1.035
343.2 K, 610 kPa, Gas	1.039
343.2 K, 740 kPa, Gas	1.044
343.2 K, 930 kPa, Gas	1.059
343.2 K, 1090 kPa, Gas	1.069
343.2 K, 1240 kPa, Gas	1.08
343.2 K, 1550 kPa, Gas	1.106
343.2 K, 1730 kPa, Gas	1.166
343.2 K, 2600 kPa, Liquid	4.21
343.2 K, 4000 kPa, Liquid	4.25
343.2 K, 6000 kPa, Liquid	4.32
343.2 K, 8200 kPa, Liquid	4.38
343.2 K, 10200 kPa, Liquid	4.43
343.2 K, 12200 kPa, Liquid	4.48
343.2 K, 14400 kPa, Liquid	4.52
343.2 K, 16300 kPa, Liquid	4.56
343.2 K, 18000 kPa, Liquid	4.59
343.2 K, 20200 kPa, Liquid	4.64
343.2 K, 21900 kPa, Liquid	4.67
343.2 K, 23400 kPa, Liquid	4.69
343.2 K, 27700 kPa, Liquid	4.76
343.2 K, 30400 kPa, Liquid	4.8
343.2 K, 33200 kPa, Liquid	4.84
353.1 K, 40 kPa, Gas	1.01
353.1 K, 100 kPa, Gas	1.012
353.1 K, 220 kPa, Gas	1.017
353.1 K, 480 kPa, Gas	1.03
353.1 K, 530 kPa, Gas	1.033
353.1 K, 580 kPa, Gas	1.036
353.1 K, 680 kPa, Gas	1.041
353.1 K, 780 kPa, Gas	1.047
353.1 K, 870 kPa, Gas	1.052
353.1 K, 970 kPa, Gas	1.058
353.1 K, 1070 kPa, Gas	1.064
353.1 K, 1180 kPa, Gas	1.071
353.1 K, 1270 kPa, Gas	1.078
353.1 K, 1340 kPa, Gas	1.082
353.1 K, 1440 kPa, Gas	1.09
353.1 K, 1540 kPa, Gas	1.098
353.1 K, 1700 kPa, Gas	1.109
353.1 K, 1890 kPa, Gas	1.128
353.1 K, 2150 kPa, Gas	1.178
353.1 K, 2200 kPa, Liquid	3.92
353.1 K, 4000 kPa, Liquid	3.98
353.1 K, 6400 kPa, Liquid	4.07
353.1 K, 8200 kPa, Liquid	4.13
353.1 K, 10200 kPa, Liquid	4.19
353.1 K, 12200 kPa, Liquid	4.24
353.1 K, 14200 kPa, Liquid	4.29
353.1 K, 16100 kPa, Liquid	4.33
353.1 K, 18200 kPa, Liquid	4.38
353.1 K, 20000 kPa, Liquid	4.42
353.1 K, 21800 kPa, Liquid	4.45
353.1 K, 24000 kPa, Liquid	4.49
353.1 K, 25800 kPa, Liquid	4.52
353.1 K, 27700 kPa, Liquid	4.55
353.1 K, 29800 kPa, Liquid	4.58
363.4 K, 850 kPa, Gas	1.048
363.4 K, 1050 kPa, Gas	1.059
363.4 K, 1200 kPa, Gas	1.068
363.4 K, 1410 kPa, Gas	1.081
363.4 K, 1580 kPa, Gas	1.092
363.4 K, 1750 kPa, Gas	1.104
363.4 K, 1890 kPa, Gas	1.116
363.4 K, 2070 kPa, Gas	1.131
363.4 K, 2280 kPa, Gas	1.15
363.4 K, 2800 kPa, Liquid	3.63
363.4 K, 4200 kPa, Liquid	3.71
363.4 K, 6200 kPa, Liquid	3.8
363.4 K, 8000 kPa, Liquid	3.88
363.4 K, 10200 kPa, Liquid	3.95
363.4 K, 12200 kPa, Liquid	4.01
363.4 K, 14200 kPa, Liquid	4.06
363.4 K, 16000 kPa, Liquid	4.11
363.4 K, 18000 kPa, Liquid	4.16
363.4 K, 20000 kPa, Liquid	4.2
363.4 K, 22000 kPa, Liquid	4.24
363.4 K, 24000 kPa, Liquid	4.28
363.4 K, 26000 kPa, Liquid	4.31
363.4 K, 28000 kPa, Liquid	4.35
363.4 K, 30500 kPa, Liquid	4.4
372.9 K, 3400 kPa, Liquid	3.38
372.9 K, 4200 kPa, Liquid	3.44
372.9 K, 6100 kPa, Liquid	3.57
372.9 K, 8300 kPa, Liquid	3.66
372.9 K, 10200 kPa, Liquid	3.73
372.9 K, 12200 kPa, Liquid	3.81
372.9 K, 14400 kPa, Liquid	3.88
372.9 K, 16200 kPa, Liquid	3.91
372.9 K, 18300 kPa, Liquid	3.96
372.9 K, 20000 kPa, Liquid	4
372.9 K, 22300 kPa, Liquid	4.05
372.9 K, 24100 kPa, Liquid	4.09
372.9 K, 26200 kPa, Liquid	4.14
372.9 K, 27800 kPa, Liquid	4.16
372.9 K, 29200 kPa, Liquid	4.18
382.9 K, 4000 kPa, Liquid	3.08
382.9 K, 6200 kPa, Liquid	3.31
382.9 K, 8100 kPa, Liquid	3.43
382.9 K, 10000 kPa, Liquid	3.53
382.9 K, 12300 kPa, Liquid	3.62
382.9 K, 14200 kPa, Liquid	3.68
382.9 K, 16100 kPa, Liquid	3.74
382.9 K, 18000 kPa, Liquid	3.79
382.9 K, 20000 kPa, Liquid	3.84
382.9 K, 22000 kPa, Liquid	3.89
382.9 K, 24000 kPa, Liquid	3.93
382.9 K, 26000 kPa, Liquid	3.97
382.9 K, 27900 kPa, Liquid	4.01
382.9 K, 30100 kPa, Liquid	4.05
393 K, 6200 kPa, Liquid	3.01
393 K, 8400 kPa, Liquid	3.21
393 K, 10000 kPa, Liquid	3.3
393 K, 12300 kPa, Liquid	3.4
393 K, 14200 kPa, Liquid	3.47
393 K, 16200 kPa, Liquid	3.54
393 K, 18200 kPa, Liquid	3.6
393 K, 20000 kPa, Liquid	3.65
393 K, 22000 kPa, Liquid	3.7
393 K, 24000 kPa, Liquid	3.75
393 K, 26000 kPa, Liquid	3.79
393 K, 27800 kPa, Liquid	3.83
393 K, 29500 kPa, Liquid	3.86
402.9 K, 6900 kPa, Fluid (supercritical or subcritical phases)	2.75
402.9 K, 8600 kPa, Fluid (supercritical or subcritical phases)	2.96
402.9 K, 10200 kPa, Fluid (supercritical or subcritical phases)	3.08
402.9 K, 12000 kPa, Fluid (supercritical or subcritical phases)	3.19
402.9 K, 14200 kPa, Fluid (supercritical or subcritical phases)	3.28
402.9 K, 16100 kPa, Fluid (supercritical or subcritical phases)	3.35
402.9 K, 18000 kPa, Fluid (supercritical or subcritical phases)	3.4
402.9 K, 20000 kPa, Fluid (supercritical or subcritical phases)	3.47
402.9 K, 21700 kPa, Fluid (supercritical or subcritical phases)	3.51
402.9 K, 23600 kPa, Fluid (supercritical or subcritical phases)	3.55
402.9 K, 25800 kPa, Fluid (supercritical or subcritical phases)	3.61
402.9 K, 27100 kPa, Fluid (supercritical or subcritical phases)	3.64
402.9 K, 29500 kPa, Fluid (supercritical or subcritical phases)	3.68
